Where two headings read alike, the source gives them in different places.
Assay: Biodistribution in A549 and U-87 MG co-implantation mice
Type: in vivo, BALB/c nu-nu mice
Details: male, BALB/c nu-nu, mouse, iv, 37 kBq, total radioactivity, U-87 MG and A549 co-implanted mice, mean ± SD, n = 4
Description: Animal experiments were performed in compliance with institutional animal care regulations, with the study protocol approved by the Experimental Animal Committee of Osaka Medical and Pharmaceutical University (Approval Numbers: 21–76, 22–76, and 23–76). Four-week-old male BALB/c nu-nu mice (Japan SLC, Shizuoka, Japan) were housed under a 12 h light/12 h dark cycle with free access to food and water. Tumor-bearing mice were established by suspending U-87 MG cells (2 × 10^6 cells/mouse) in PBS(–) and subcutaneously injecting 100 μL of the suspension into the right hind leg. For co-implantation models, A549 cells (2 × 10^6 cells/mouse) were suspended in PBS(–) and inoculated (100 μL) into the left hind leg of the same mice already inoculated with U-87 MG cells. Mice with tumor size approximately 10 mm in diameter, 4–5 weeks after inoculation, were used for biodistribution studies. Animals in which either tumor was not viable were excluded from the experiment.
U-87 MG-bearing mice (n = 42, 8–9 weeks old; 22–27 g) were randomly assigned into groups and administered [^125I]bcRGDpal or [^125I]bcRGDiba via intravenous injection (37 kBq in 100 μL of PBS containing 0.1% Tween 80 (PBS-T80)). At 5 min, 30 min, 1 h, 2 h, 6 h, 12 h, or 24 h post-injection, the mice were euthanized (n = 3 per time point). The heart, kidneys, liver, brain, pancreas, spleen, lung, small intestine, large intestine, muscle, skin, stomach, bone, and tumors were excised. Each organ’s weight and radioactivity were measured by a NaI well-type scintillation counter, and the % ID/g was calculated. To investigate the correlation between integrin expression and radioactivity accumulation, biodistribution at 2 h after administration of [^125I]bcRGDpal or [^125I]bcRGDiba was assessed in A549 and U-87 MG co-implantation mice (n = 5) using the same procedure. Additionally, co-implantation mice were injected with [^125I]bcRGDdimer (37 kBq/100 μL PBS-T80) and euthanized at 30 min, 2 h, and 4 h post-injection (n = 4 per time point), and % ID/g values were calculated as described above. The minimum sample size needed for the biodistribution study in U-87 MG-bearing mice was calculated using G Power software version 3.1.9.7. The calculation was based on a two-tailed test, with an effect size of 3.9, a significance level (α) of 0.05, and a statistical power (1 − β) of 0.8. […] The minimum required sample size for the biodistribution study in A549 and U-87 MG co-implantation mice was also calculated to be four animals per group (effect size = 2.5, α = 0.05, 1 − β = 0.8). To guarantee objective results, the experiment was carried out in a blinded manner. Specifically, drug administration and radioactivity measurements were conducted by different investigators to eliminate potential bias.

`N=C(N)NCCC[C@@H]1NC(=O)[C@H]2CSCc3cc(cc(c3)CSC[C@H](C(N)=O)NC(=O)[C@H](CC(=O)O)NC(=O)CNC1=O)CSC[C@H](NC(=O)CNC(=O)[C@H](CO)NC(=O)c1ccc(NC(=O)CNC(=O)[C@H](CO)NC(=O)[C@@H]3CCCN3C(=O)[C@@H]3CCCN3C(=O)[C@@H]3CCCN3C(=O)CCc3cn(CC[C@H](NC(=O)CCNC(=O)c4cccc(I)c4)C(=O)N4CCC[C@H]4C(=O)N4CCC[C@H]4C(=O)N4CCC[C@H]4C(=O)N[C@@H](CO)C(=O)NCC(=O)Nc4ccc(C(=O)N[C@@H](CO)C(=O)NCC(=O)N[C@H]5CSCc6cc7cc(c6)CSC[C@@H](NC(=O)[C@H](CCC(N)=O)NC(=O)[C@@H]6CCCN6C(=O)[C@H](Cc6c[nH]cn6)NC5=O)C(=O)N[C@@H](CCCNC(=N)N)C(=O)NCC(=O)N[C@@H](CC(=O)O)C(=O)N[C@@H](C(N)=O)CSC7)cc4)nn3)cc1)C(=O)N[C@@H](Cc1c[nH]cn1)C(=O)N1CCC[C@H]1C(=O)N[C@@H](CCC(N)=O)C(=O)N2` [[^125I]bcRGDdimer] gave a tissue uptake at 0.5 h (A549 tumor, 30 min after i.v. administration, read-out: Radioactivity in A549 tumor) of 1.7 ± 0.6 %ID/g, a tissue uptake at 2 h (A549 tumor, 2 h after i.v. administration, read-out: Radioactivity in A549 tumor) of 0.8 ± 0.2 %ID/g and a tissue uptake at 4 h (A549 tumor, 4 h after i.v. administration, read-out: Radioactivity in A549 tumor) of 0.4 ± 0.1 %ID/g. The tissue uptake at 0.5 h (U-87 MG tumor, 30 min after i.v. administration, read-out: Radioactivity in U-87 MG tumor) was 7.5 ± 0.8 %ID/g, the tissue uptake at 2 h (U-87 MG tumor, 2 h after i.v. administration, read-out: Radioactivity in U-87 MG tumor) was 4.2 ± 1.1 %ID/g and the tissue uptake at 4 h (U-87 MG tumor, 4 h after i.v. administration, read-out: Radioactivity in U-87 MG tumor) was 2.9 ± 0.4 %ID/g. For the same compound, the tissue uptake at 2 h (blood, 2 h after i.v. administration, read-out: Radioactivity in blood) was 0.3 %ID/g, the tissue uptake at 0.5 h (bone, 30 min after i.v. administration, read-out: Radioactivity in bone) was 1.5 ± 0.3 %ID/g and the tissue uptake at 2 h (bone, 2 h after i.v. administration, read-out: Radioactivity in bone) was 0.9 ± 0.3 %ID/g. For the same compound, the tissue uptake at 4 h (bone, 4 h after i.v. administration, read-out: Radioactivity in bone) was 0.4 %ID/g, the tissue uptake at 0.5 h (brain, 30 min after i.v. administration, read-out: Radioactivity in brain) was 0.1 %ID/g and the tissue uptake at 0.5 h (heart, 30 min after i.v. administration, read-out: Radioactivity in heart) was 0.6 ± 0.1 %ID/g. For the same compound, the tissue uptake at 2 h (heart, 2 h after i.v. administration, read-out: Radioactivity in heart) was 0.2 %ID/g, the tissue uptake at 4 h (heart, 4 h after i.v. administration, read-out: Radioactivity in heart) was 0.1 %ID/g and the tissue uptake at 0.5 h (kidneys, 30 min after i.v. administration, read-out: Radioactivity in kidneys) was 10.9 ± 2.6 %ID/g. The tissue uptake at 2 h (kidneys, 2 h after i.v. administration, read-out: Radioactivity in kidneys) was 2 ± 0.2 %ID/g, the tissue uptake at 4 h (kidneys, 4 h after i.v. administration, read-out: Radioactivity in kidneys) was 0.9 ± 0.2 %ID/g and the tissue uptake at 0.5 h (large intestine, 30 min after i.v. administration, read-out: Radioactivity in large intestine) was 0.4 ± 0.2 %ID/g. The tissue uptake at 2 h (large intestine, 2 h after i.v. administration, read-out: Radioactivity in large intestine) was 5.5 ± 1 %ID/g, the tissue uptake at 4 h (large intestine, 4 h after i.v. administration, read-out: Radioactivity in large intestine) was 5.5 ± 1.4 %ID/g and the tissue uptake at 0.5 h (liver, 30 min after i.v. administration, read-out: Radioactivity in liver) was 0.9 ± 0.1 %ID/g. The tissue uptake at 2 h (liver, 2 h after i.v. administration, read-out: Radioactivity in liver) was 0.5 ± 0.1 %ID/g, the tissue uptake at 4 h (liver, 4 h after i.v. administration, read-out: Radioactivity in liver) was 0.3 ± 0.1 %ID/g and the tissue uptake at 0.5 h (lung, 30 min after i.v. administration, read-out: Radioactivity in lung) was 2.9 ± 0.5 %ID/g. For the same compound, the tissue uptake at 2 h (lung, 2 h after i.v. administration, read-out: Radioactivity in lung) was 1.2 ± 0.3 %ID/g, the tissue uptake at 4 h (lung, 4 h after i.v. administration, read-out: Radioactivity in lung) was 0.4 ± 0.1 %ID/g and the tissue uptake at 0.5 h (muscle, 30 min after i.v. administration, read-out: Radioactivity in muscle) was 0.7 ± 0.1 %ID/g. For the same compound, the tissue uptake at 2 h (muscle, 2 h after i.v. administration, read-out: Radioactivity in muscle) was 0.2 %ID/g, the tissue uptake at 4 h (muscle, 4 h after i.v. administration, read-out: Radioactivity in muscle) was 0.1 %ID/g and the tissue uptake at 0.5 h (pancreas, 30 min after i.v. administration, read-out: Radioactivity in pancreas) was 0.5 ± 0.1 %ID/g. It also gave a tissue uptake at 2 h (pancreas, 2 h after i.v. administration, read-out: Radioactivity in pancreas) of 0.2 ± 0.1 %ID/g, a tissue uptake at 4 h (pancreas, 4 h after i.v. administration, read-out: Radioactivity in pancreas) of 0.1 %ID/g and a tissue uptake at 0.5 h (small intestine, 30 min after i.v. administration, read-out: Radioactivity in small intestine) of 3.6 ± 0.6 %ID/g. It also gave a tissue uptake at 2 h (small intestine, 2 h after i.v. administration, read-out: Radioactivity in small intestine) of 2.3 ± 1 %ID/g, a tissue uptake at 4 h (small intestine, 4 h after i.v. administration, read-out: Radioactivity in small intestine) of 1.6 ± 0.4 %ID/g and a tissue uptake at 0.5 h (spleen, 30 min after i.v. administration, read-out: Radioactivity in spleen) of 0.7 ± 0.2 %ID/g. The tissue uptake at 2 h (spleen, 2 h after i.v. administration, read-out: Radioactivity in spleen) was 0.3 ± 0.1 %ID/g, the tissue uptake at 4 h (spleen, 4 h after i.v. administration, read-out: Radioactivity in spleen) was 0.2 %ID/g and the tissue uptake dose at 0.5 h (stomach, 30 min after i.v. administration) was 0.6 ± 0.5 %ID. The tissue uptake dose at 2 h (stomach, 2 h after i.v. administration) was 0.2 %ID, the tissue uptake dose at 4 h (stomach, 4 h after i.v. administration) was 0.3 ± 0.3 %ID and the tissue uptake at 0.5 h (whole blood, 30 min after i.v. administration, read-out: Radioactivity in blood) was 1.1 ± 0.1 %ID/g. It also gave a tissue uptake at 2 h (whole blood, 2 h after i.v. administration, read-out: Radioactivity in blood) of 0.3 ± 0.1 %ID/g and a tissue uptake at 4 h (whole blood, 4 h after i.v. administration, read-out: Radioactivity in blood) of 0.2 ± 0.1 %ID/g.
